{
  "source": "patent US8367328B2",
  "about": "“Method for synthesizing DNA” (Takara Bio Inc., priority 1998, dated 2013)",
  "system": "KOD dash DNA Polymerase",
  "experiment": "PCR with KOD dash DNA Polymerase in the presence of acidic substances",
  "type": "biochemical",
  "conditions": "12 kb fragment; 10 pg λDNA, primers λ1/λ9, 25 cycles 98°C 5 s–68°C 3 min; amount added 0.5 μg",
  "protocol": "(2) The effects of the acidic substances were studied for KOD dash DNA Polymerase (manufactured by TOYOBO CO., LTD.), comprising a combination of DNA polymerase having 3′→5′ exonuclease activity, and DNA polymerase having no such activity. A reaction mixture comprising λDNA as a template, primers λ1 and λ9 as a primer pair was prepared, and PCR was carried out. In the following example, PCR was carried out in Fast mode by using TaKaRa PCR Thermal Cycler Personal (manufactured by Takara Shuzo Co., Ltd.). The composition of the reaction mixture is as follows. Composition of Reaction Mixture: exclusive buffer attached for KOD dash DNA Polymerase, 0.2 mM each of dATP, dCTP, dGTP and dTTP, 10 pg of λDNA, 2.5 U of KOD dash DNA Polymerase, and 10 pmol each of primers λ1 and λ9 (a final volume being 50 μl). Further, 1 ng of the sulfated-fucose-containing polysaccharide-F or 0.5 μg of sodium alginate was respectively added to the above reaction mixture.\nThe reaction was carried out in 25 cycles, wherein one cycle of reaction comprises a process consisting of 98° C., 5 seconds—68° C., 3 minutes. After the termination of the reaction, 5 μl of the resulting reaction mixture was subjected to electrophoresis on 1% agarose gel containing ethidium bromide in an amount of 0.00005%, whereby an amplified fragment was confirmed.",
  "data": [
    {"substance": "sodium alginate", "values": [
      {"measurement": "Amplification Results", "value": "++ (Intensive amplification being observed)"}
    ]}
  ]
}
